Test systems include CCRF-CEM; KM12; Malme-3M; SW-620; NCI-H460; UO-31; NCI-H23; HOP-62; SNB-75; UACC-62; RPMI-8226; SK-MEL-2; SK-MEL-28; OVCAR-5; ACHN; TK-10; SN12C; MOLT-4; OVCAR-8; RXF 393.
Common to all, as to experiment: NCI tumour cell line growth inhibition, 48 h

Consider ten molecules from ChEMBL document CHEMBL1201862, “PubChem BioAssay data set” (2004).

Each structure is given as a SMILES string.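 Grown in 96-well plates, cells were treated for 48 hours with each compound at five concentrations. Insufficient inhibition: endpoint recorded as highest concentration tested. GI50 is the concentration that inhibits growth by half.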 Active and inactive are the calls of the source. Cut-off read from the data, not from the text of the source: active = GI50 up to about 1.1 µM and inactive = higher. A value given as a limit tells only on which side of the number the result lay.

For the molecule `O=[N+]([O-])c1ccc(CN(CCCl)OCCCl)cc1`, the GI50 in the assay on CCRF-CEM is 35.5 µM (inactive); in the assay with KM12 it was > 100 µM (inactive); with Malme-3M, > 100 µM (inactive); in the assay on SW-620 it was 91.2 µM (inactive); in the assay with NCI-H460 it was > 100 µM (inactive); in the assay with UO-31, 37.8 µM (inactive). The GI50 was 76.7 µM (inactive) in the assay on NCI-H23; > 100 µM (inactive) with HOP-62; > 100 µM (inactive) with SNB-75; 55.8 µM (inactive) in the assay on UACC-62; 98.6 µM (inactive) with RPMI-8226; > 100 µM (inactive) in the assay with SK-MEL-2. Besides, the GI50 in the assay on SK-MEL-28 was > 100 µM (inactive); in the assay with OVCAR-5 it was > 100 µM (inactive); in the assay with ACHN, 64.3 µM (inactive); in the assay with TK-10, > 100 µM (inactive); with SN12C, > 100 µM (inactive); with MOLT-4, 20.9 µM (inactive). Besides, the GI50 with OVCAR-8 and with RXF 393 was > 100 µM (inactive) throughout.

For the molecule `Clc1ccc(/N=C/C=C/Nc2ccc(Cl)cn2)nc1`, the GI50 is 3.22 µM (inactive) with CCRF-CEM; 8.53 µM (inactive) in the assay on KM12; 17.3 µM (inactive) in the assay with Malme-3M; 4.9 µM (inactive) in the assay with SW-620; 16 µM (inactive) in the assay with NCI-H460; 15.6 µM (inactive) in the assay on UO-31. The GI50 was 16.9 µM (inactive) with NCI-H23; 16.9 µM (inactive) in the assay on HOP-62; 13 µM (inactive) in the assay with SNB-75; 12.9 µM (inactive) in the assay on UACC-62; 10.4 µM (inactive) in the assay with RPMI-8226; 15.6 µM (inactive) in the assay on SK-MEL-2. The GI50 in the assay with SK-MEL-28 is 18.6 µM (inactive); in the assay with OVCAR-5 it was 16.3 µM (inactive); with ACHN, 12.6 µM (inactive); with TK-10, 19.1 µM (inactive); with SN12C, 14.5 µM (inactive); in the assay on MOLT-4 it was 4.74 µM (inactive). Further, the GI50 was 10.4 µM (inactive) in the assay on OVCAR-8 and 18.4 µM (inactive) in the assay on RXF 393.

In the case of `O=C(O)c1cc(Cl)cc2c1NC1(N2)C(=O)Nc2ccccc21` (stereo not given), the GI50 in the assay on CCRF-CEM is > 100 µM (inactive); in the assay with KM12 it was > 100 µM (inactive); in the assay on Malme-3M, 69.2 µM (inactive); in the assay with SW-620 it was 73.6 µM (inactive); in the assay with NCI-H460, > 100 µM (inactive); in the assay with UO-31, > 100 µM (inactive). The GI50 in the assay on NCI-H23 is > 100 µM (inactive); with HOP-62, > 100 µM (inactive); in the assay on SNB-75, 97.1 µM (inactive); with UACC-62, > 100 µM (inactive); in the assay on RPMI-8226 it was > 100 µM (inactive); with SK-MEL-2, > 100 µM (inactive). Further, the GI50 in the assay with SK-MEL-28, in the assay on OVCAR-5, in the assay with ACHN, in the assay with TK-10, in the assay with SN12C and in the assay with MOLT-4 was > 100 µM (inactive) in each case. For the same molecule, the GI50 in the assay on OVCAR-8 is 39.6 µM (inactive); with RXF 393, 52.6 µM (inactive).

With `Cc1cc2nc3[nH]nc(N)c3nc2cc1C`, the GI50 in the assay on CCRF-CEM, in the assay on KM12, with Malme-3M, with SW-620, in the assay on NCI-H460 and in the assay with UO-31 was > 100 µM (inactive) throughout. The GI50 with NCI-H23 was > 100 µM (inactive); in the assay on HOP-62, 70 µM (inactive); in the assay with SNB-75, 26.2 µM (inactive); in the assay with UACC-62, > 100 µM (inactive); in the assay with RPMI-8226 it was > 100 µM (inactive); with SK-MEL-2, > 100 µM (inactive). The GI50 in the assay on SK-MEL-28, in the assay with OVCAR-5, in the assay on ACHN, in the assay with TK-10, in the assay with SN12C and with MOLT-4 was > 100 µM (inactive) in each case. In addition, the GI50 was 88.7 µM (inactive) in the assay on OVCAR-8 and 32.3 µM (inactive) with RXF 393.

As to `COC1=CCC=C(C[C@@H]2NCCc3cc(OC)c(OC)cc32)C1`, the GI50 with CCRF-CEM, in the assay on KM12, with Malme-3M, in the assay with SW-620, in the assay with NCI-H460 and in the assay on UO-31 was > 100 µM (inactive) in each case. The GI50 in the assay on NCI-H23, in the assay on HOP-62, in the assay with SNB-75, with UACC-62, with RPMI-8226 and with SK-MEL-2 was > 100 µM (inactive) in each case. In addition, the GI50 in the assay on SK-MEL-28, in the assay on OVCAR-5, in the assay with ACHN, with TK-10, in the assay with SN12C and in the assay with MOLT-4 was > 100 µM (inactive) throughout. For the same molecule, the GI50 in the assay on OVCAR-8 and in the assay with RXF 393 was > 100 µM (inactive) each time.

Regarding `COc1cc(C(=O)N(C)N(C)C)cc(OC)c1OC`, the GI50 with CCRF-CEM, in the assay on KM12, in the assay with Malme-3M, in the assay with SW-620, with NCI-H460 and in the assay with UO-31 was > 10 µM (inactive) throughout. The GI50 in the assay with NCI-H23, in the assay on HOP-62, in the assay with SNB-75, with UACC-62, in the assay on RPMI-8226 and in the assay on SK-MEL-2 was > 10 µM (inactive) each time. The GI50 in the assay with SK-MEL-28, with OVCAR-5, in the assay with ACHN, in the assay with TK-10, in the assay with SN12C and in the assay on MOLT-4 was > 10 µM (inactive) each time. In addition, the GI50 in the assay with OVCAR-8 and in the assay on RXF 393 was > 10 µM (inactive) throughout.

Take `Cc1cc(Br)cc(C)c1NC(=O)C(=O)Nn1c(S)nc2ccccc2c1=O`: the GI50 in the assay with CCRF-CEM, with KM12, in the assay on Malme-3M, in the assay with SW-620, with NCI-H460 and in the assay on UO-31 was > 100 µM (inactive) throughout. The GI50 in the assay with NCI-H23, with HOP-62, with SNB-75, in the assay with UACC-62, in the assay on RPMI-8226 and in the assay on SK-MEL-2 was > 100 µM (inactive) in each case. The GI50 with SK-MEL-28, with OVCAR-5, with ACHN, in the assay with TK-10, in the assay with SN12C and in the assay with MOLT-4 was > 100 µM (inactive) each time. Moreover, the GI50 in the assay on OVCAR-8 and in the assay with RXF 393 was > 100 µM (inactive) throughout.

Regarding `O=C1NC2(CCN(CCc3ccccc3)CC2)Oc2ccccc21`, the GI50 was 49.3 µM (inactive) with CCRF-CEM; 54.7 µM (inactive) in the assay with KM12; 33.3 µM (inactive) in the assay with Malme-3M; > 100 µM (inactive) in the assay on SW-620; > 100 µM (inactive) in the assay on NCI-H460; 49 µM (inactive) in the assay on UO-31. Besides, the GI50 was 64 µM (inactive) in the assay on NCI-H23; > 100 µM (inactive) with HOP-62; 36.9 µM (inactive) in the assay on SNB-75; 46.6 µM (inactive) in the assay on UACC-62; 33.7 µM (inactive) in the assay on RPMI-8226; > 100 µM (inactive) in the assay with SK-MEL-2. The GI50 with SK-MEL-28 was 73.6 µM (inactive); in the assay on OVCAR-5, 44.2 µM (inactive); in the assay with ACHN it was 84.7 µM (inactive); with TK-10, > 100 µM (inactive); with SN12C it was 99.5 µM (inactive); with MOLT-4 it was 32.5 µM (inactive). Also, the GI50 with OVCAR-8 is 64.7 µM (inactive); in the assay with RXF 393, 22.4 µM (inactive).

With `COc1cc(C(C#N)NNC(=O)c2ccccc2O)ccc1O` (stereo not given), the GI50 with CCRF-CEM is 2.08 µM (inactive); with KM12 it was 3.85 µM (inactive); in the assay with Malme-3M, 9.4 µM (inactive); in the assay on SW-620, 8.32 µM (inactive); in the assay on NCI-H460, 1.47 µM (inactive); in the assay on UO-31, 0.701 µM (active). Moreover, the GI50 is 2.07 µM (inactive) with NCI-H23; 4.78 µM (inactive) with HOP-62; 0.356 µM (active) with SNB-75; 0.887 µM (active) in the assay with UACC-62; 9.64 µM (inactive) with RPMI-8226; 2.48 µM (inactive) in the assay on SK-MEL-2. Also, the GI50 is 30.6 µM (inactive) in the assay with SK-MEL-28; 10.7 µM (inactive) in the assay with OVCAR-5; 0.873 µM (active) with ACHN; 4.11 µM (inactive) with TK-10; 7.03 µM (inactive) in the assay on SN12C; 6.15 µM (inactive) in the assay on MOLT-4. The GI50 in the assay on OVCAR-8 is 5.83 µM (inactive); in the assay with RXF 393, 0.349 µM (active).

Take `N#CC(C#N)=C(N)/C(C#N)=C/c1ccc2[nH]ccc2c1`: the GI50 in the assay with CCRF-CEM is > 100 µM (inactive); in the assay on KM12 it was > 100 µM (inactive); in the assay with Malme-3M it was > 100 µM (inactive); with SW-620, > 100 µM (inactive); in the assay with NCI-H460, > 100 µM (inactive); in the assay with UO-31, 14 µM (inactive). The GI50 is > 100 µM (inactive) in the assay on NCI-H23; > 84.3 µM (inactive) in the assay on HOP-62; 22.7 µM (inactive) in the assay on SNB-75; > 84.9 µM (inactive) with UACC-62; > 100 µM (inactive) in the assay with RPMI-8226; > 100 µM (inactive) in the assay with SK-MEL-2. Besides, the GI50 with SK-MEL-28, in the assay on OVCAR-5, in the assay on ACHN, with TK-10, in the assay on SN12C and in the assay with MOLT-4 was > 100 µM (inactive) each time. Further, the GI50 in the assay on OVCAR-8 is > 100 µM (inactive); with RXF 393, > 91.2 µM (inactive).
